Experimental data reported in PMC3919520 (Bioorganic & medicinal chemistry, 2013).
“Also recorded” adds a separate entry of the source.

What was measured:
BoNT/A = BoNT/A (Clostridium botulinum, UniProt P0DPI1); assay type: cell-based, C. botulinum
Chain of BoNT/A (P0DPI1 2-448 limits assumed): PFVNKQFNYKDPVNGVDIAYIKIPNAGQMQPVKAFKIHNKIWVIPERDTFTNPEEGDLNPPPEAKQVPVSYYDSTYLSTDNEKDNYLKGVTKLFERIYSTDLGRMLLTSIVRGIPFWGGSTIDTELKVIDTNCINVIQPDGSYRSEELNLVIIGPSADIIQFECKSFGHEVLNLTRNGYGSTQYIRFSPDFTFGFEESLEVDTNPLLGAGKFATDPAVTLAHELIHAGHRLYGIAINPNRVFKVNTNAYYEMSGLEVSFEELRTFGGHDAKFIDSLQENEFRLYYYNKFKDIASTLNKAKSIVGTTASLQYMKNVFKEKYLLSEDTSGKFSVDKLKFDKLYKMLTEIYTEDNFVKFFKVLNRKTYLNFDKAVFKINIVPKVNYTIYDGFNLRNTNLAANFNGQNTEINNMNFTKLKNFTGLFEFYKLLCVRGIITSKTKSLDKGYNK

SMILES: O=C(/C=C/c1ccc(Cl)cc1Cl)NOC(=O)NCc1ccccc1 [compound 1, (E)-N-((benzylcarbamoyl)oxy)-3-(2,4-dichlorophenyl)acrylamide]
- Cytotoxicity (hiPSC-derived neurons; at 150 µM): cytotoxic at 150 µM ^a
- Inhibition / protection of SNAP-25 from the neurotoxin (result in words) (BoNT/A): ineffective inhibitors

SMILES: O=C(CC(CCO)c1ccc(Cl)cc1Cl)NOC(=O)NCc1ccccc1 (centres unmarked) [compound 2, N-((benzylcarbamoyl)oxy)-3-(2,4-dichlorophenyl)-5-hydroxypentanamide]
- Cytotoxicity (result in words) (hiPSC-derived neurons): did not show cytotoxicity
- Inhibition (BoNT/A): no inhibition; also recorded: partial inhibition at 300 µM
- Inhibition / protection of SNAP-25 from the neurotoxin (result in words) (BoNT/A): ineffective inhibitors
